Laboratory results taken from patent publication US20240299384A1, “METHODS FOR TREATING PULMONARY HYPERTENSION IN PATIENTS WITH LEFT VENTRICULAR ASSIST DEVICE IMPLANTATION” (ACTELION PHARMACEUTICALS LTD, priority 2021, published 2024).

Columns and labels:
[1] = test system: patients with PH post-LVAD implantation; experiment: Phase 2 study in PH post-LVAD implantation: change in WHO functional class; type: in vivo, human
Method: (§1) This is a double-blind, placebo-controlled, multicenter, parallel-group Phase 2 study assessing the efficacy and safety of macitentan in PH post-LVAD implantation. Approximately 57 adult patients with PH post-LVAD implantation were randomized (1:1) to receive either macitentan 10 mg, or matching placebo, once daily orally.
Change from Baseline to Week 12 in WHO FC. See, Table 10.
WHO FC is summarized by time point and treatment group using frequency tables. Changes from Baseline in WHO FC are dichotomized as worsening (i.e., change >0) versus no change or improvement (i.e., change≤0). Worsening is analyzed using a logistic regression model with covariates for treatment group and WHO FC.

[2] = test system: patients with PH post-LVAD implantation; experiment: Phase 2 study in PH post-LVAD implantation: serum NT-proBNP; type: in vivo, human; conditions: 10 mg once daily
Method: as §1
A blood sample is drawn at Randomization (Visit 2) and EOT (Visit 5) for the analysis of serum NT-proBNP. See, Table 12 for serum NT-proBNP at Week 12 compared to baseline for the FAS.
NT-proBNP is summarized by time point and treatment group using descriptive statistics as well as geometric means and CVs. The ratio of Week 12 to Baseline NT-proBNP is summarized similarly. The ratio versus Baseline in NT-proBNP is log-transformed and analyzed using an ANCOVA with covariates for treatment group and Baseline log NT-proBNP.

[3] = test system: patients with PH post-LVAD implantation; experiment: Phase 2 placebo-controlled study in PH post-LVAD implantation: right heart catheterization hemodynamics (PVR by thermodilution); type: in vivo, human
Method: as §1
After implantation of the LVAD, patients meet baseline hemodynamic criteria of PH via RHC during the last measurement prior to the first dose of drug, defined as mPAP≥25 mmHg at rest and PAWP≤18 mmHg and PVR>3 WU. Patients are randomized within 90 days of surgical implantation of LVAD and within 14 days of Baseline RHC.
• (i) Primary efficacy endpoint: The primary efficacy endpoint is PVR ratio of Week 12 to Baseline. PVR is obtained by the thermodilution method. See, Table 7 for the FAS, Table 8 for the ES, and Table 9 for the PPS.
An RHC conducted prior to signing the Informed Consent may be accepted as the Baseline RHC. Baseline RHC is performed by the thermodilution method, after LVAD implantation and prior to first dose of treatment (which occurs within 90 days post-surgical implantation of LVAD). Randomization (Visit 2) is within 14 days of Baseline RHC. Patients are excluded if they were treated with ERAs, PDE5 inhibitors, i.v., s.c., or oral prostanoids, or guanylate cyclase stimulators within 7 days prior to Baseline RHC or treatment initiation. Patients are excluded if they were treated with inhaled prostanoids (e.g., iloprost, epoprostenol), nitric oxide or i.v. inotropes or vasopressors within 24 h prior to Baseline RHC or treatment initiation. LVAD pump speed/flow rate may be adjusted during the treatment period and during the Baseline RHC.
An RHC is repeated at Week 12, or within 7 days of permanent discontinuation of treatment if prior to Week 12. The Week 12 RHC is performed by the thermodilution method, and not within 24 h of treatment with i.v. inotropes or vasopressors.
The following variables also are measured: pulse rate, PAWP, mRAP, systolic/diastolic/mean PAP, CO, and SVO2 and non-invasive mean, SBP and DBP if available. PVR is calculated. CO measurements, and PVR calculations, during both Baseline and Week 12 RHC is obtained via the thermodilution method. All primary end point calculations is based on thermodilution method-calculated PVR.
The following hemodynamic variables are calculated: PVR, TPR, and CI.
The primary efficacy variable is PVR ratio of Week 12 to Baseline. PVR [WU] is calculated as (mPAP-PAWP)/CO.
The ratio of Week 12 to Baseline PVR is log-transformed (base e) and analyzed using an analysis of covariance (ANCOVA) with a factor for treatment group and a covariate for Baseline log PVR (macitentan vs. placebo). The treatment group difference (on log scale) and its 95% CLs are estimated based on the model. The geometric mean ratio (GMR; macitentan vs. placebo) and its 95% confidence interval are obtained by exponentiation. The null hypothesis is rejected if the entire 95% confidence interval is below one.
The treatment effect is expressed as (GMR-1)×100%, where a negative value indicates a reduction of PVR in the macitentan group as compared to the placebo group.

[4] = cited from earlier work
[5] = FAS, N = 25, baseline to Week 12
[6] = 10 mg once daily, Week 12: Baseline, FAS, n 27
[7] = 10 mg once daily, post-hoc analysis
[8] = PVR calculated by programming, ES sensitivity analysis, 10 mg once daily, Week 12
[9] = PVR calculated by programming, PPS sensitivity analysis, 10 mg once daily, Week 12
[10] = PVR calculated by programming, primary analysis, FAS, 10 mg once daily, Week 12
[11] = PVR reported by INV, sensitivity analysis, FAS, 10 mg once daily, Week 12

CCCNS(=O)(=O)Nc1ncnc(OCCOc2ncc(Br)cn2)c1-c1ccc(Br)cc1 [Macitentan, propylsulfamic acid [5-(4-bromo-phenyl)-6-[2-(5-bromo-pyrimidin-2-yloxy)-ethoxy]-pyrimidin-4-yl]-amide]
WHO FC Improvement (change < 0), number of patients [1, 5]: 10 | WHO FC Improvement (change < 0), percent of patients [1, 5]: 40.0% | WHO FC No change (change = 0), number of patients [1, 5]: 13 | WHO FC No change (change = 0), percent of patients [1, 5]: 52.0% | WHO FC Worsening (change > 0), number of patients [1, 5]: 2 | WHO FC Worsening (change > 0), percent of patients [1, 5]: 8.0% | Change in WHO FC, Odds Ratio Macitentan relative to Placebo (95% Confidence Interval) ([1]; ordered logistic regression adjusting for baseline, higher OR = better change): 1.333 (0.417, 4.255) | NT-proBNP at Week 12/EOT, Mean (std) ([2]; FAS, n 22): 2435.4 (2620.75) ng/L | NT-proBNP at Week 12/EOT, Median ([2]; FAS, n 22): 1098.0 ng/L | NT-proBNP (Geometric mean ratio − 1) × 100% ([2]; Week 12, FAS): 10.9% | NT-proBNP, Comparison to Placebo, Geometric Mean Ratio ([2]; Week 12, FAS): 1.1086 | NT-proBNP Ratio to Baseline, Mean (std) ([2]; Week 12: Baseline, FAS, n 22): 0.8 (0.57) | NT-proBNP Ratio to Baseline, Median ([2]; Week 12: Baseline, FAS, n 22): 0.6 | DPG, Least squares mean change from baseline ([3]; 10 mg once daily, Day 84 or EOT, FAS, n 23): −6.0383 mmHg | TPG, Least squares mean change from baseline ([3]; 10 mg once daily, Day 84 or EOT, FAS, n 24): −7.6521 mmHg | Change in CI, Comparison to Placebo, Difference of least squares mean ([3]; 10 mg once daily, FAS): 0.1209 L/min/m^2 | Change in CO, Comparison to Placebo, Difference of least squares mean ([3]; 10 mg once daily, FAS): 0.2064 L/min | Change in DPG, Comparison to Placebo, Difference of least squares mean ([3]; 10 mg once daily, FAS): −2.7136 mmHg | Change in PAWP, Comparison to Placebo, Difference of least squares mean ([3]; 10 mg once daily, FAS): 2.3514 mmHg | Change in SvO2, Comparison to Placebo, Difference of least squares mean ([3]; 10 mg once daily, FAS): 0.4285% | Change in TPG, Comparison to Placebo, Difference of least squares mean ([3]; 10 mg once daily, FAS): −2.7022 mmHg | Change in TPR, Comparison to Placebo, Difference of least squares mean ([3]; 10 mg once daily, FAS): −0.4422 mmHg min/L | mPAP (end-expiratory mean line), Comparison to Placebo, Difference of least squares mean ([3]; 10 mg once daily, FAS): −0.3052 mmHg | mRAP, Comparison to Placebo, Difference of least squares mean ([3]; 10 mg once daily, FAS): 2.1396 mmHg | DPG at Day 84 or EOT, mean (SD) ([3]; 10 mg once daily, FAS, n 23): 3.87 (5.619) mmHg | Change in CI at Day 84 or EOT compared to Baseline, Least squares mean ([3]; 10 mg once daily, FAS, n 24): 0.1284 L/min/m^2 | Change in CO at Day 84 or EOT compared to Baseline, Least squares mean ([3]; 10 mg once daily, FAS, n 24): 0.3655 L/min | Change in PAWP at Day 84 or EOT compared to Baseline, Least squares mean ([3]; 10 mg once daily, FAS, n 24): 3.4038 mmHg | Change in SvO2 at Day 84 or EOT compared to Baseline, Least squares mean ([3]; 10 mg once daily, FAS, n 24): 4.7801% | Change in TPR at Day 84 or EOT compared to Baseline, Least squares mean ([3]; 10 mg once daily, FAS, n 24): −1.4175 mmHg min/L | PVR at Week 12/EOT, Mean (std) ([3]; 10 mg once daily, FAS, n 24): 2.555 (1.0607) WU | PVR at Week 12/EOT, Median ([3]; 10 mg once daily, FAS, n 24): 2.644 WU | TPG at Day 84 or EOT, mean (SD) ([3]; 10 mg once daily, FAS, n 24): 12.13 (4.902) mmHg | mPAP (end-expiratory mean line), change from baseline, Least squares mean ([3]; 10 mg once daily, FAS, n 24): −4.2251 mmHg | mRAP, change from baseline, Least squares mean ([3]; 10 mg once daily, FAS, n 24): 0.6222 mmHg | Change in mPAP at Day 84 or EOT compared to Baseline, Least squares mean ([3]; 10 mg once daily, FAS, n 24, second mPAP section of Table 11): −4.8854 mmHg | Change in TPG, Comparison to Placebo, Difference of least squares mean ([3]; 10 mg once daily, FAS, listed as macitentan): −2.7 mmHg | Change in mPAP, Comparison to Placebo, Difference of least squares mean ([3]; 10 mg once daily, FAS, second mPAP section of Table 11): −1.3035 mmHg | reduction in PVR for macitentan vs placebo ([3]; 10 mg once daily, Week 12): 26% | PVR Ratio to Baseline, Mean (std) [3, 6]: 0.585 (0.2280) | PVR Ratio to Baseline, Median [3, 6]: 0.573 | patients with postbaseline PVR<3 WU, number [3, 7]: 16 | patients with postbaseline PVR<3 WU, percent [3, 7]: 66.7% | PVR (Geometric mean ratio − 1) × 100% [3, 8]: −26.3% | PVR Geometric Mean Ratio, comparison to placebo [3, 8]: 0.7371 | PVR (Geometric mean ratio − 1) × 100% [3, 9]: −37.6% | PVR Geometric Mean Ratio, comparison to placebo [3, 9]: 0.6236 | PVR (Geometric mean ratio − 1) × 100% [3, 10]: −26.1% | PVR Geometric Mean Ratio, comparison to placebo [3, 10]: 0.7393 | PVR Geometric Mean Ratio, comparison to placebo ([3]; PVR calculated by programming, primary analysis, FAS, 10 mg once daily, Week 12, listed as macitentan): 0.74 | PVR (Geometric mean ratio − 1) × 100% [3, 11]: −26.1% | PVR Geometric Mean Ratio, comparison to placebo [3, 11]: 0.7386 | effect on PVR in words ([3]; early post-LVAD population): significantly reduced PVR | LV filling in words ([3]; from PAWP and CO data): improved LV filling | proportion with postbaseline PVR<3 WU ([3]; patients with baseline PVR<4 WU, n=10): 90.0% | proportion with postbaseline PVR<3 WU ([3]; patients with baseline PVR>4 WU, n=14): 50.0% | Flushing/feeling of warmth/redness of face and/or hands, Frequency observed with macitentan 10 mg [4]: Uncommon | Headache, Frequency observed with macitentan 10 mg [4]: Very | Photophobia, Frequency observed with macitentan 10 mg [4]: Not known | Sinusitis/rhinitis/nasal congestion, Frequency observed with macitentan 10 mg [4]: Common
